Assay results published in ChEMBL document CHEMBL1201862, “PubChem BioAssay data set” (2004).
Values joined by “and” are separate entries in the source; they are usually repeats but may differ in a detail not shown here. Identical values can stand only once.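 Briefly, cells in 96-well plates were exposed to five compound concentrations for 48 h, and endpoints were estimated by linear interpolation. GI50 is the concentration that inhibits growth by half.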 Active and inactive are the calls of the source. No stated cut-off is given here; in the data, active = GI50 up to about 1.1 µM and inactive = higher.

What was measured:
Assay in all cases: NCI-60 cell line screen, 48 h
[1] = system: A498
[2] = system: COLO 205
[3] = system: SF-268
[4] = system: NCI-H226
[5] = system: HL-60
[6] = system: UACC-62
[7] = system: OVCAR-4
[8] = system: MDA-N
[9] = system: SW-620
[10] = system: UO-31
[11] = system: SF-539
[12] = system: BT-549
[13] = system: SK-MEL-2
[14] = system: SNB-19
[15] = system: NCI/ADR-RES
[16] = system: EKVX
[17] = system: SNB-75
[18] = system: LOX IMVI
[19] = system: SK-OV-3
[20] = system: SF-295
[21] = system: NCI-H23
[22] = system: OVCAR-3
[23] = system: NCI-H460
[24] = system: SK-MEL-5
[25] = system: HOP-92
[26] = system: HCT-116
[27] = system: RPMI-8226
[28] = system: A549
[29] = system: IGROV-1
[30] = system: ACHN
[31] = system: K562
[32] = system: UACC-257
[33] = system: T47D
[34] = system: CAKI-1
[35] = system: HCT-15
[36] = system: TK-10
[37] = system: HT-29
[38] = system: 786-0
[39] = system: U-251
[40] = system: Malme-3M
[41] = system: KM12
[42] = system: CCRF-CEM
[43] = system: HCC 2998
[44] = system: MDA-MB-231
[45] = system: SN12C
[46] = system: Hs-578T
[47] = system: OVCAR-5
[48] = system: OVCAR-8
[49] = system: DU-145
[50] = system: MDA-MB-435
[51] = system: SK-MEL-28
[52] = system: MOLT-4
[53] = system: PC-3
[54] = system: M14
[55] = system: NCI-H522
[56] = system: RXF 393
[57] = system: HOP-62

CC1C(=O)OCC2=CCN3CCC(OC(=O)C(C)C1(C)O)C23 (centres undefined)
GI50 [1]: > 100 µM (inactive) | GI50 [2]: > 100 µM (inactive) | GI50 [3]: > 100 µM (inactive) | GI50 [4]: > 100 µM (inactive) | GI50 [5]: > 100 µM (inactive) | GI50 [6]: > 100 µM (inactive) | GI50 [7]: > 100 µM (inactive) | GI50 [8]: > 100 µM (inactive) | GI50 [9]: > 100 µM (inactive) | GI50 [10]: > 100 µM (inactive) | GI50 [11]: > 100 µM (inactive) | GI50 [12]: > 100 µM (inactive) | GI50 [13]: > 100 µM (inactive) | GI50 [14]: > 100 µM (inactive) | GI50 [15]: > 100 µM (inactive) | GI50 [16]: > 100 µM (inactive) | GI50 [17]: > 100 µM (inactive) | GI50 [18]: > 100 µM (inactive) | GI50 [19]: > 100 µM (inactive) | GI50 [20]: > 100 µM (inactive) | GI50 [21]: > 100 µM (inactive) | GI50 [22]: > 100 µM (inactive) | GI50 [23]: > 100 µM (inactive) | GI50 [24]: > 100 µM (inactive) | GI50 [25]: > 100 µM (inactive) | GI50 [26]: > 100 µM (inactive) | GI50 [27]: > 100 µM (inactive) | GI50 [28]: > 100 µM (inactive) | GI50 [29]: > 100 µM (inactive) | GI50 [30]: > 100 µM (inactive) | GI50 [31]: > 100 µM (inactive) | GI50 [32]: > 100 µM (inactive) | GI50 [33]: > 100 µM (inactive) | GI50 [34]: > 100 µM (inactive) | GI50 [35]: > 100 µM | GI50 [36]: > 100 µM (inactive) | GI50 [37]: > 100 µM (inactive) | GI50 [38]: > 100 µM (inactive) | GI50 [39]: > 100 µM (inactive) | GI50 [40]: > 100 µM (inactive) | GI50 [41]: > 100 µM (inactive) | GI50 [42]: > 100 µM (inactive) | GI50 [43]: > 100 µM (inactive) | GI50 [44]: > 100 µM (inactive) | GI50 [45]: > 100 µM (inactive) | GI50 [46]: > 100 µM (inactive) | GI50 [47]: > 100 µM (inactive) | GI50 [48]: > 100 µM (inactive) | GI50 [49]: > 100 µM (inactive) | GI50 [50]: > 100 µM (inactive) | GI50 [51]: > 100 µM (inactive) | GI50 [52]: > 100 µM (inactive) | GI50 [53]: > 100 µM (inactive) | GI50 [54]: > 100 µM (inactive) | GI50 [55]: > 100 µM (inactive)

CN1C=c2c3c(ccc2=C2C=CC4C=C5OCOC5=CC4=C21)OCO3 (centres undefined)
GI50 [2]: 1.89 µM (inactive) and 1.4 µM (inactive) | GI50 [3]: 2.42 µM (inactive) and 1.61 µM (inactive) | GI50 [5]: 285 nM (active) and 170 nM (active) | GI50 [56]: 1.98 µM (inactive) and 1.04 µM (active) | GI50 [7]: 1.85 µM (inactive) and 3.11 µM (inactive) | GI50 [8]: 1.85 µM (inactive) and 1.35 µM (inactive) | GI50 [9]: 1.05 µM (active) and 1.58 µM (inactive) | GI50 [10]: 2.1 µM (inactive) and 1.47 µM (inactive) | GI50 [11]: 2.28 µM (inactive) and 1.71 µM (inactive) | GI50 [12]: 2.15 µM (inactive) and 1.58 µM (inactive) | GI50 [57]: 2.28 µM (inactive) and 1.55 µM (inactive) | GI50 [13]: 2.69 µM (inactive) and 1.95 µM (inactive) | GI50 [17]: 1.87 µM (inactive) and 3.72 µM (inactive) | GI50 [18]: 1.8 µM (inactive) and 1.6 µM (inactive) | GI50 [21]: 1.53 µM (inactive) and 2.98 µM (inactive) | GI50 [22]: 871 nM (active) and 1.58 µM (inactive) | GI50 [24]: 2.44 µM (inactive) and 1.6 µM (inactive) | GI50 [26]: 1.66 µM (inactive) and 1.02 µM (active) | GI50 [29]: 1.99 µM (inactive) and 1.65 µM (inactive) | GI50 [32]: 3.15 µM (inactive) and 1.76 µM (inactive) | GI50 [33]: 1.75 µM (inactive) and 2.28 µM (inactive) | GI50 [35]: 1.41 µM and 1.7 µM | GI50 [37]: 2.07 µM (inactive) and 1.62 µM (inactive) | GI50 [38]: 1.66 µM (inactive) and 1.31 µM (inactive) | GI50 [39]: 1.57 µM (inactive) and 2.34 µM (inactive) | GI50 [40]: 2.44 µM (inactive) and 1.6 µM (inactive) | GI50 [44]: 2 µM (inactive) and 1.22 µM (inactive) | GI50 [45]: 1.92 µM (inactive) and 1.56 µM (inactive) | GI50 [46]: 1.9 µM (inactive) and 2.65 µM (inactive) | GI50 [50]: 1.06 µM (active) and 1.85 µM (inactive) | GI50 [51]: 1.59 µM (inactive) and 2.89 µM (inactive) | GI50 [53]: 2.96 µM (inactive) and 1.52 µM (inactive) | GI50 [54]: 1.21 µM (inactive) and 1.73 µM (inactive) | GI50 [55]: 1.5 µM (inactive) and 1.45 µM (inactive)
